{
  "source": "ChEMBL document CHEMBL5335819",
  "about": "“Discovery of an ellipticine derivative as TLR3 inhibitor against influenza A virus and SARS-CoV-2” (Bioorg Med Chem Lett, 2024)",
  "key": {"[1]": {"system": "Influenza A virus", "test": "Antiviral activity against Influenza virus infected in human A549 cells assessed as reduction in virus induced CCL-5 mRNA expression level by qRT-PCR analysis", "type": "functional, organism-based"}, "[2]": {"test": "Cytotoxicity against human A549 cells assessed as reduction in cell viability incubated for 48 hrs by MTT assay", "type": "toxicity, cell-based"}, "[3]": {"system": "MDCK", "test": "Cytotoxicity against MDCK cells assessed as reduction in cell viability incubated for 48 hrs by MTT assay", "type": "toxicity, cell-based, Canis lupus familiaris", "conditions": "dog"}, "[4]": {"system": "Influenza A virus", "test": "Antiviral activity against Influenza virus infected in TLR3 knockdown human A549 cells assessed as reduction in NP protein level measured after 24 hrs by Western blot analysis", "type": "functional, organism-based"}, "[5]": {"system": "Influenza A virus", "test": "Antiviral activity against Influenza virus infected in human A549 cells assessed as reduction in virus induced IP-10 mRNA expression level by qRT-PCR analysis", "type": "functional, organism-based"}, "[6]": {"test": "Cytotoxicity against African green monkey Vero E6 cells assessed as reduction in cell viability by CCK-8 assay", "type": "toxicity, cell-based, Vero C1008", "conditions": "chlorocebus sabaeus"}, "[7]": {"system": "A549", "test": "Reduction in Poly(I:C) induced TLR3 mRNA expression in human A549 cells by qRT-PCR analysis", "type": "functional, cell-based"}, "[8]": {"test": "Cytotoxicity against human BEAS-2B cells assessed as reduction in cell viability incubated for 48 hrs by MTT assay", "type": "toxicity, cell-based"}, "[9]": {"system": "Influenza A virus", "test": "Antiviral activity against Influenza virus infected in TLR3 human knockdown A549 cells assessed as reduction in PB2 protein level measured after 24 hrs by Western blot analysis", "type": "functional, organism-based"}, "[10]": {"test": "Cytotoxicity against human HEK293T cells assessed as reduction in cell viability incubated for 48 hrs by MTT assay", "type": "toxicity, cell-based, HEK-293T"}, "[11]": {"system": "Influenza A virus", "test": "Antiviral activity against Influenza A virus A/WSN/33 (H1N1) infected in dog MDCK cells"}, "[12]": {"system": "Influenza A virus", "test": "Antiviral activity against Influenza virus infected in human A549 cells assessed as reduction in virus induced IFN- beta mRNA expression level by qRT-PCR analysis", "type": "functional, organism-based"}, "[13]": {"system": "SARS-CoV-2", "test": "Antiviral activity against SARS-CoV-2 infected in African green monkey Vero E6 cells", "type": "functional, organism-based", "conditions": "Severe acute respiratory syndrome coronavirus 2, Vero C1008"}, "[14]": {"system": "SARS-CoV-2", "test": "Antiviral activity against SARS-CoV-2 infected in African green monkey Vero E6 cells assessed as inhibition of NP protein by indirect immunofluoresence assay", "type": "functional, organism-based", "conditions": "Severe acute respiratory syndrome coronavirus 2"}, "[15]": {"system": "Influenza A virus", "test": "Antiviral activity against Influenza A virus A/Puerto Rico/8/34 (H1N1) infected in dog MDCK cells"}, "[16]": {"system": "Influenza A virus", "test": "Antiviral activity against Influenza virus infected in TLR3 knockdown human A549 cells by plaque assay", "type": "functional, organism-based"}, "[17]": {"target": "Toll-like receptor 3 (Homo sapiens) (UniProt O15455)", "sequence (O15455 whole entry)": "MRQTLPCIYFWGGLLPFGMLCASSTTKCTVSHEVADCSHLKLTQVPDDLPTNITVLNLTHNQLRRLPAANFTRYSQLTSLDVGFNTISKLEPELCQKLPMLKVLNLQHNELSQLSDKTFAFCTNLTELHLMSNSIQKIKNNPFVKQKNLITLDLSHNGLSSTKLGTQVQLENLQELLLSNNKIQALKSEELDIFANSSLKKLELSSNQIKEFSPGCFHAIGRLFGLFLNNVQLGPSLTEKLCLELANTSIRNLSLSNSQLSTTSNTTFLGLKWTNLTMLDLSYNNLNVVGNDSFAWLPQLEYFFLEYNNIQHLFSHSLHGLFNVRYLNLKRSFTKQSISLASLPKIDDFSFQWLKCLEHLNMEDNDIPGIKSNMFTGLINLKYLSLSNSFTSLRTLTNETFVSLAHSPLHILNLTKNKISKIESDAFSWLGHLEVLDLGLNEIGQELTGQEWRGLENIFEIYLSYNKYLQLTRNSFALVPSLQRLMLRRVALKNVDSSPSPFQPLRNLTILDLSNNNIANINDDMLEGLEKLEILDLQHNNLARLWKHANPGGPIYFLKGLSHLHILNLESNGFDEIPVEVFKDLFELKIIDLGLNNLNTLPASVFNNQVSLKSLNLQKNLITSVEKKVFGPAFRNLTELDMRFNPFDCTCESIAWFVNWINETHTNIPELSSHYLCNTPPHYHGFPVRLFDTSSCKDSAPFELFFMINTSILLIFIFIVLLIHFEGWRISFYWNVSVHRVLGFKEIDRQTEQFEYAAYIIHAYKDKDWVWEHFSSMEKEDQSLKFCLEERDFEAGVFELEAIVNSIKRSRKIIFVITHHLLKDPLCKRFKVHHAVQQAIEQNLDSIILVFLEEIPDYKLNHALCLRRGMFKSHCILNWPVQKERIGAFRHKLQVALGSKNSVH", "test": "Inhibition of human TLR3 expressed in mouse RAW264.7 cells assessed as inhibition of NO production", "type": "cell-based"}},
  "note": "Active and inactive are the calls of the source. No cut-off for these calls is given here.",
  "data": [
    {"smiles": "COc1ccc2[nH]c3c(C)c4ccncc4c(C)c3c2c1", "values": [
      {"measurement": "Activity", "setting": "[1]", "result": "Active"},
      {"measurement": "CC50 at 48 h", "setting": "[2]", "result": 5.33, "unit": "µM"},
      {"measurement": "CC50", "setting": "[3]", "result": 5.33, "unit": "µM"},
      {"measurement": "Activity", "setting": "[4]", "result": "Active"},
      {"measurement": "Activity", "setting": "[5]", "result": "Active"},
      {"measurement": "CC50", "setting": "[6]", "result": "> 10", "unit": "µM"},
      {"measurement": "Activity", "setting": "[7]", "result": "Active"},
      {"measurement": "CC50 at 48 h", "setting": "[8]", "result": 5.33, "unit": "µM"},
      {"measurement": "Activity", "setting": "[9]", "result": "Active"},
      {"measurement": "CC50 at 48 h", "setting": "[10]", "result": 5.33, "unit": "µM"},
      {"measurement": "IC50", "setting": "[11]", "result": 330, "unit": "nM"},
      {"measurement": "Activity", "setting": "[12]", "result": "Active"},
      {"measurement": "IC50", "setting": "[13]", "result": 430, "unit": "nM"},
      {"measurement": "Activity", "setting": "[14]", "result": "Dose-Dependent Effect"},
      {"measurement": "IC50", "setting": "[15]", "result": 140, "unit": "nM"},
      {"measurement": "Activity", "setting": "[16]", "result": "inactive"},
      {"measurement": "inhibition", "setting": "[17]", "result": "Active"}
    ]}
  ]
}
